# Measured values from article PMC12469672, “Effects on Oral Squamous Carcinoma Cell Lines and Their Mechanisms of Pyrazole N-Aryl Sulfonate: A Novel Class of Selective Cyclooxygenase-2 Inhibitors” (International Journal of Molecular Sciences, 2025).
# Test system: MMP9 mRNA in SAS cells
# Assay: RT-qPCR MMP9 mRNA, SAS
# Format: cell-based
# Conditions: vs control
# Protocol: Equal amounts of RNA were reverse transcribed into cDNA using the Reverse Transcription Kit (AG11705, Accurate Biology, Guangzhou, China) following the manufacturer’s instructions. Quantitative PCR was performed on a QIAGEN Rotor-GeneQ system (9001862, QIAGEN, Hilden, Germany) with SYBR Green Pro Taq HS Premix II (AG11702, Accurate Biology, China).
# The PCR protocol consisted of initial denaturation at 95 °C for 30 s, followed by 40 cycles of 95 °C for 5 s and 60 °C for 30 s. All reactions were performed in triplicate, with melting curve analysis confirming amplification specificity. The expression of the target genes was normalized to GAPDH, and fold changes were calculated in the manner of the 2^−ΔΔCT .
smiles,measurement,value
Cc1ccc(-c2cc(C)n(S(=O)(=O)Oc3ccc(I)cc3)n2)cc1 [Compound 4b],MMP9 mRNA level,significant reduction
